From ChEMBL document CHEMBL3045439, “Isoforms of the heteropteran Nezara viridula ecdysone receptor: protein characterisation, RH5992 insecticide binding and homology modelling” (Pest Manag Sci, 2011)
pKi: −log10 of the molar value.

Molecular target: T1, Ecdysone receptor (Choristoneura fumiferana, UniProt O76202+O77240)
T1 sequence (O77240 whole entry): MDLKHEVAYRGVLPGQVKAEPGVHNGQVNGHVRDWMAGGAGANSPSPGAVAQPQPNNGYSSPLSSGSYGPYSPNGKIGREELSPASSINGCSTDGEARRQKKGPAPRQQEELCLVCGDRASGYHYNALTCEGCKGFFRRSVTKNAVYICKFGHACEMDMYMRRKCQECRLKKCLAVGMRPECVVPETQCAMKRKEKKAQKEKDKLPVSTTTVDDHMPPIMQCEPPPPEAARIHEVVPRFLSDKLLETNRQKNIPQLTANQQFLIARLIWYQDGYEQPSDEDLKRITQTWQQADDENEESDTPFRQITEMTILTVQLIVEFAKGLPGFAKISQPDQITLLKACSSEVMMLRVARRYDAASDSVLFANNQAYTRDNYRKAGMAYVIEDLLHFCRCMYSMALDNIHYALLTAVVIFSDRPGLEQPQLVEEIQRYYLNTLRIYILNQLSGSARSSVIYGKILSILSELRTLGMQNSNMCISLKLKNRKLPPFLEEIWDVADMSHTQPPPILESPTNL
T1 sequence (O76202 whole entry): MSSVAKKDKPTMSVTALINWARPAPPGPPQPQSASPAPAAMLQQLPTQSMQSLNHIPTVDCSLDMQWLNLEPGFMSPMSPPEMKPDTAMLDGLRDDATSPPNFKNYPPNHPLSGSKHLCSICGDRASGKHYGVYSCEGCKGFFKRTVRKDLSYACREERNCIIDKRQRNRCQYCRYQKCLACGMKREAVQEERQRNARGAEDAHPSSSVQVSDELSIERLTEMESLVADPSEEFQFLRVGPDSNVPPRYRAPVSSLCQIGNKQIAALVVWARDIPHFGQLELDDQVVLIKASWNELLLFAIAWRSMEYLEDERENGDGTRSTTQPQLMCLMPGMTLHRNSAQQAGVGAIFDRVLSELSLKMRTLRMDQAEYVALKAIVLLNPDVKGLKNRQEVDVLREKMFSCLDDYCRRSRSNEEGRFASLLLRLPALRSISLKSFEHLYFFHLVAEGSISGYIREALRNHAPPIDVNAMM
Assay: Binding affinity to Choristoneura fumiferana EcR
Format: protein-complex assay

CCc1ccc(C(=O)NN(C(=O)c2cc(C)cc(C)c2)C(C)(C)C)cc1 [TEBUFENOZIDE]
pKi: 9.30
